Test results published in PMC7932555, “A diffusible signal factor of the intestine dictates Salmonella invasion through its direct control of the virulence activator HilD” (PLoS Pathogens, 2021).
Positions count from the first letter of the chain named. Values joined by “and” are separate entries in the source; they are usually repeats but may differ in a detail not shown here. Identical values can stand only once.

Experiments:
wild type HilD = target: T1, wild type HilD (Salmonella typhimurium, UniProt P0CL08); test: EMSA of hilA promoter DNA with wild type HilD; assay type: biochemical; details: wild type HilD 150 nM; 10 nM hilA promoter DNA; increasing concentrations or 30 μM fatty acid
T1 construct: made in house; host or cells: E. coli BL21 (DE3)
T1 sequence (P0CL08 1-309): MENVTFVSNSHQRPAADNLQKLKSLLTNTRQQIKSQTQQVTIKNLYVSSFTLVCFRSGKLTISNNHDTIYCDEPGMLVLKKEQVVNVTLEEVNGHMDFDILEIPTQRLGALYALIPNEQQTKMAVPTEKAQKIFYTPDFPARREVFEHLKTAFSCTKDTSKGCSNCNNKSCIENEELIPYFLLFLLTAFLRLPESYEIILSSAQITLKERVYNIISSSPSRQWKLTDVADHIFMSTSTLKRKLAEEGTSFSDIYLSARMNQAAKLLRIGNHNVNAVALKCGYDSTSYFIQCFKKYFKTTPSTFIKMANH
Description: (§1) These were performed as previously described. Briefly, 10 nM hilA promoter DNA (-286 to +31) was mixed with 150 nM HilD in a binding buffer (100 mM Tris pH 7.5, 10 mM EDTA, 1M KCl, 1 mM DTT, 50% v/v glycerol). Fatty acids or control solvents were added at various concentrations. Binding reaction was performed at room temperature for 1 hour. Dye solution was added to final concentration of 1X and samples were separated on 10% acrylamide gels. DNA was stained using SYBR Safe and visualized in BioRad GelDoc imaging system.

HilD^K293A [1] = target: T2, HilD^K293A (Salmonella typhimurium, UniProt P0CL08, K293A); test: ELISA binding of fatty acid to HilD K293A
T2 construct: made in house; host or cells: E. coli BL21 (DE3)
T2 sequence (P0CL08 1-309 K293A): T1 sequence (P0CL08 1-309) with K293A
Description: (§2) hilD or its mutated sequences were amplified and cloned into pET15b(+) under an N-terminal 6xHis tag. The constructs were transformed into E. coli BL21 (DE3) for expression. Transformants were induced with 5 mM IPTG for 4 hours. Cultures were centrifuged, lysed and treated with TALON beads as described above. Bound protein was eluted by applying 1 ml elution buffer to the columns. Elution was confirmed by SDS-PAGE. Following confirmation, eluted samples were dialyzed overnight in dialysis buffer (50 mM sodium phosphate, 300 mM NaCl, 10% glycerol). Protein concentration and quality were assessed by Bradford estimation and SDS-PAGE.
(§3) 96-well polystyrene plates were coated with 10 μM fatty acid in coating buffer (0.05 M sodium carbonate-bicarbonate, pH 9.3) and incubated overnight at 4°C. Wells were washed three times with PBS, followed by addition of blocking buffer (1% Ficoll 400 in PBS). After blocking, wells were washed three times with PBS, and different concentrations of proteins in blocking buffer were added and incubated at room temperature for 2 hours. […] After color development, reaction was stopped with 1N sulfuric acid and read spectrophotometrically at 490 nm. Binding was analyzed in GraphPad Prism.
(§4) All experiments were repeated twice and data of representative experiment have been shown. Kd was calculated by using Total One-Site binding in GraphPad Prism. […]

HilD^N44A [2] = target: T3, HilD^N44A (Salmonella typhimurium, UniProt P0CL08, N44A); test: ELISA binding of fatty acid to HilD N44A
T3 construct: made in house; host or cells: E. coli BL21 (DE3)
T3 sequence (P0CL08 1-309 N44A): T1 sequence (P0CL08 1-309) with N44A
Description: as §2, §3, §4

HilD^N44A [3] = target: T3, HilD^N44A; test: EMSA of hilA promoter DNA with HilD N44A; assay type: biochemical; details: 10 nM hilA promoter DNA, 30 μM fatty acid
Description: as §1

HilD^Q290A = target: T4, HilD^Q290A (Salmonella typhimurium, UniProt P0CL08, Q290A); test: ELISA binding of fatty acid to HilD Q290A
T4 construct: made in house; host or cells: E. coli BL21 (DE3)
T4 sequence (P0CL08 1-309 Q290A): T1 sequence (P0CL08 1-309) with Q290A
Description: as §2, §3, §4

HilD^K293A [4] = target: T2, HilD^K293A; test: EMSA of hilA promoter DNA with HilD K293A; assay type: biochemical; details: 10 nM hilA promoter DNA, 30 μM fatty acid
Description: as §1

sipB::lacZY = sipB::lacZY reporter β-galactosidase assay in strains expressing wild type or mutant HilD; assay type: cell-based; details: 20 μM fatty acid (mix: 20 μM of each)
From the text: To test the effect of mutations in hilD, we initially constructed a background Salmonella strain without chromosomal hilC, rtsA and hilD and fused sipB to lacZY to assess SPI-1 expression. hilD with a C-terminal 3XFLAG tag was cloned into pWSK29 under control of the tetRA promoter for tetracycline-inducible expression. This plasmid was subjected to site-directed mutagenesis at specific nucleotides to change selected amino acids to alanine, using the Agilent QuikChange II Site-Directed Mutagenesis kit following their protocol. Mutations were confirmed by DNA sequencing.
Salmonella strains were inoculated into LB buffered with 100 mM MOPS [3-(N-morpholino) propanesulphonic acid] pH 6.7, with necessary antibiotics, and fatty acids or control solvents to be tested. Cultures were incubated at 37° C without aeration overnight, and assays were performed using an established protocol.

[5] = plates pre-adsorbed with 10 μM fatty acid
[6] = strain expressing wild type HilD

Row | Compound | effect on HilD binding to hilA promoter DNA (wild type HilD) | binding in ELISA (in words) (HilD^K293A [1]) | binding in ELISA (in words) (HilD^N44A [2]) | effect on HilD binding to hilA promoter DNA (HilD^N44A [3]) | Kd (HilD^Q290A; [5]) [µM] | effect on HilD binding to hilA promoter DNA (HilD^K293A [4]) | repression of sipB expression (sipB::lacZY; strain expressing HilD K43A) | repression of sipB expression (sipB::lacZY; strain expressing HilD K293A) | repression of sipB expression (sipB::lacZY; strain expressing HilD K294A) | repression of sipB expression (sipB::lacZY; strain expressing HilD Q290A) | repression of sipB expression (sipB::lacZY; [6]) | Kd (HilD^K293A [1]; [5]) [µM] | binding in ELISA (in words) (HilD^Q290A)
1 | CCCCCCCCCCCCC/C=C\C(=O)O [c2-HDA, cis-2-hexadecenoic acid] | progressively impaired interaction of wild type HilD with the DNA target | negligible binding | essentially no binding | retained its binding of target DNA | 9.7 | remained bound to the hilA promoter | Repression by c2-HDA, however, remained unaffected | No significant repression | No significant repression | Repression by c2-HDA, however, remained unaffected | ~11 fold and 10.9 fold |  | 
2 | CCCCCCCCCCCCC/C=C/C(=O)O [t2-HDA, trans-2-hexadecenoic acid] | efficiently reduced the DNA binding capacity |  | essentially no binding | did not disrupt DNA binding |  | efficiently reduced the DNA binding capacity |  |  |  |  | 5.2 fold | 16.7 | failed to bind
